From PubChem BioAssay AID200 (DTP/NCI, 2004)
Values joined by “and” are separate entries in the source; they are usually repeats but may differ in a detail not shown here. Identical values can stand only once. Toxic doses and inconclusive results are not listed. Where a SMILES comes first, the peptide text is derived from it. The star is where a group is joined. For = O=C*

System: B6C3F1 mice, B16 melanoma ip, median survival T/C
Assay: NCI In Vivo Anticancer Drug Screen. Data for tumor model B16 Melanoma (intraperitoneal) in B6C3F1 mice
Details: endpoint: median survival time, higher = longer survival
Summary of the method: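 Values are T/C ratios: the measurement in treated animals divided by that in vehicle-treated controls, using survival or tumor size in mice carrying transplantable tumors.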

[1] = dose: 6.25 mg/kg/injection, schedule: Q01DX009 (ip), vehicle: saline with Tween-80
[2] = dose: 12.5 mg/kg/injection, schedule: Q01DX009 (ip), vehicle: saline with Tween-80
[3] = dose: 25.0 mg/kg/injection, schedule: Q01DX009 (ip), vehicle: saline with Tween-80
[4] = dose: 50.0 mg/kg/injection, schedule: Q01DX009 (ip), vehicle: saline with Tween-80
[5] = dose: 100.0 mg/kg/injection, schedule: Q01DX009 (ip), vehicle: saline with Tween-80
[6] = dose: 50.0 mg/kg/injection, schedule: Q01DX009 (ip), vehicle: Klucel (hydroxypropylcellulose) (HPC)
[7] = dose: 100.0 mg/kg/injection, schedule: Q01DX009 (ip), vehicle: Klucel (hydroxypropylcellulose) (HPC)
[8] = dose: 200.0 mg/kg/injection, schedule: Q01DX009 (ip), vehicle: Klucel (hydroxypropylcellulose) (HPC)
[9] = dose: 400.0 mg/kg/injection, schedule: Q01DX009 (ip), vehicle: Klucel (hydroxypropylcellulose) (HPC)

In the case of `O=C1[C@H]2CCC[C@H]2[C@H]2CCC[C@@H]12`, the T/C [1] is reported as 102 % of control, the T/C [2] is reported as 99 % of control and the T/C [3] is reported as 100 % of control. For the same compound, the T/C [4] was 100 % of control and the T/C [5] was 100 % of control.
With `CC(C)(C)NC(C1=CC(C)(C)c2ccccc2C1=O)c1ccccc1` (stereo not drawn) the T/C [6] was 99 % of control, the T/C [7] was 88 % of control and the T/C [8] was 98 % of control.
`COc1ccc(OC)c(/C=C/c2ccnc3ccccc23)c1` was tested, and the T/C (dose: 50.0 mg/kg/injection, schedule: Q01DX009 (ip), vehicle: saline sonified) was 95 % of control, the T/C (dose: 100.0 mg/kg/injection, schedule: Q01DX009 (ip), vehicle: saline sonified) was 107 % of control and the T/C (dose: 200.0 mg/kg/injection, schedule: Q01DX009 (ip), vehicle: saline sonified) was 117 % of control.
`CCC(/C=C/C1OC(=O)C=CC1C)=C\C(C)C/C=C/C(C)=C/C(C)C(=O)C(C)C(O)C(C)C/C(C)=C/C(=O)O` (stereo not drawn) was tested, and the T/C (dose: 6.25 micrograms/kg/injection, schedule: Q01DX009 (sc), vehicle: other) was 105 % of control, the T/C (dose: 12.5 micrograms/kg/injection, schedule: Q01DX009 (ip), vehicle: other) was 159 % of control and the T/C (dose: 12.5 micrograms/kg/injection, schedule: Q01DX009 (ip), vehicle: saline + alcohol) was 156 % of control and 198 % of control. The T/C (dose: 12.5 micrograms/kg/injection, schedule: Q01DX009 (sc), vehicle: other) was 102 % of control, the T/C (dose: 25.0 micrograms/kg/injection, schedule: Q01DX009 (ip), vehicle: saline + alcohol) was 165 % of control and the T/C (dose: 25.0 micrograms/kg/injection, schedule: Q01DX009 (sc), vehicle: other) was 115 % of control.
In the case of `CSCCC(NC=O)C(=O)NC(C(=O)O)C(C)C` (stereo not drawn) (For-Met-Val-OH; configuration not given here), the T/C (dose: 25.0 mg/kg/injection, schedule: Q01DX009 (ip), vehicle: Klucel (hydroxypropylcellulose) (HPC)) is reported as 101 % of control, the T/C [6] is reported as 101 % of control and the T/C [7] is reported as 107 % of control. For the same compound, the T/C [8] was 105 % of control and the T/C [9] was 98 % of control.
In the case of `CCCCCCNc1nc(NCCCCCC)c2[nH]c(NCCCCCC)nc2n1`, the T/C [3] is reported as 107 % of control, the T/C [4] is reported as 101 % of control and the T/C [5] is reported as 96 % of control. For the same compound, the T/C (dose: 200.0 mg/kg/injection, schedule: Q01DX009 (ip), vehicle: saline with Tween-80) was 91 % of control.
`CCC[CH2][Sn]1([CH2]CCC)[O]C2C(CO)OC(n3ccc(N)nc3=O)C2[O]1` (stereo not drawn) was tested, and the T/C (dose: 0.05 mg/kg/injection, schedule: Q01DX009 (ip), vehicle: Klucel (hydroxypropylcellulose) (HPC)) was 94 % of control, the T/C (dose: 0.1 mg/kg/injection, schedule: Q01DX009 (ip), vehicle: Klucel (hydroxypropylcellulose) (HPC)) was 90 % of control and the T/C (dose: 0.2 mg/kg/injection, schedule: Q01DX009 (ip), vehicle: Klucel (hydroxypropylcellulose) (HPC)) was 101 % of control. The T/C (dose: 0.4 mg/kg/injection, schedule: Q01DX009 (ip), vehicle: Klucel (hydroxypropylcellulose) (HPC)) was 95 % of control.
In the case of `O=C1C(CO)=C[C@@H](O)[C@H]2O[C@@H]12`, the T/C (dose: 3.12 mg/kg/injection, schedule: Q01DX009 (ip), vehicle: saline) is reported as 88 % of control, the T/C (dose: 6.25 mg/kg/injection, schedule: Q01DX009 (ip), vehicle: saline) is reported as 98 % of control and the T/C (dose: 12.5 mg/kg/injection, schedule: Q01DX009 (ip), vehicle: saline) is reported as 100 % of control. The T/C (dose: 25.0 mg/kg/injection, schedule: Q01DX009 (ip), vehicle: saline) was 96 % of control and the T/C (dose: 50.0 mg/kg/injection, schedule: Q01DX009 (ip), vehicle: saline) was 106 % of control.
For `C/C(=N/NC(N)=S)c1ccc2ccccc2c1`, the T/C [1] was 106 % of control, the T/C [2] was 108 % of control and the T/C [3] was 108 % of control.
`CCCCCCCCCCS(=O)CC(CO)NC(=O)/C=C/c1c(C)[nH]c(=O)[nH]c1=O` (stereo not drawn) was tested, and the T/C (dose: 0.37 mg/kg/injection, schedule: Q01DX009 (ip), vehicle: distilled water + Tween-80) was 106 % of control, the T/C (dose: 0.37 mg/kg/injection, schedule: Q01DX009 (ip), vehicle: water) was 106 % of control and the T/C (dose: 0.75 mg/kg/injection, schedule: Q01DX009 (ip), vehicle: distilled water + Tween-80) was 95 % of control. For the same compound, the T/C (dose: 0.75 mg/kg/injection, schedule: Q01DX009 (ip), vehicle: water) was 106 % of control, the T/C (dose: 1.5 mg/kg/injection, schedule: Q01DX009 (ip), vehicle: distilled water + Tween-80) was 94 % of control and the T/C (dose: 1.5 mg/kg/injection, schedule: Q01DX009 (ip), vehicle: water) was 108 % of control. For the same compound, the T/C (dose: 3.0 mg/kg/injection, schedule: Q01DX009 (ip), vehicle: distilled water + Tween-80) was 100 % of control, the T/C (dose: 3.0 mg/kg/injection, schedule: Q01DX009 (ip), vehicle: water) was 117 % of control and the T/C (dose: 6.0 mg/kg/injection, schedule: Q01DX009 (ip), vehicle: distilled water + Tween-80) was 109 % of control. For the same compound, the T/C (dose: 6.0 mg/kg/injection, schedule: Q01DX009 (ip), vehicle: water) was 114 % of control.
In the case of `O=C(O)CNC(=O)OCC1c2ccccc2-c2ccccc21`, the T/C [7] is reported as 93 % of control, the T/C [8] is reported as 87 % of control and the T/C [9] is reported as 86 % of control.
With `CS(=O)(=O)OCCN(CCOS(C)(=O)=O)c1ccc(C=Nc2ccc(-c3csc(COc4ccccc4)n3)cc2)cc1` the T/C (dose: 12.5 mg/kg/injection, schedule: Q01DX009 (ip), vehicle: Klucel (hydroxypropylcellulose) (HPC)) was 114 % of control and the T/C [6] was 162 % of control.
